Tests used:
Bradykinin B1 = assay: Eurofins radioligand binding; parameters: species or system Human; conditions: specific binding
Interleukin IL-1 R1 = assay: Eurofins radioligand binding; parameters: species or system Human; conditions: specific binding
Adenosine A2A = assay: Eurofins radioligand binding; parameters: species or system Human; conditions: specific binding
Opiate κ (OP2, KOP) = assay: Eurofins radioligand binding; parameters: species or system Human; conditions: specific binding
[1] = Hepatocyte MET ID, monkey; format: in vitro ADME; conditions: 4-h incubation
Source text: (§1) More concerning were the results generated via outsourced multispecies hepatocyte MET ID, which were drastically different than the liver S9MET ID. The extent of metabolism for VU6007496 with rat, dog, monkey and human hepatocytes was 64.7, 51.5, 63.9 and 99.5%, respectively (Figure 8). […] In human hepatocytes, PAM 11 was metabolized primarily to Metabolite A (24), the result of oxidative N-demethylation of the southern pyrazole. The other minor metabolites were oxidation on the tetrahydropyran moiety and included ring opening (Metabolite F, 25).[21]

Hepatocyte MET ID, human = format: in vitro ADME; conditions: 4-h incubation
Source text: as §1

hNav1.5 (Tonic) = tested on: T1, hNav1.5 (Tonic); assay: Ion channel current (Charles River Study 200609.WVN); format: cell-based, human; conditions: 10 μM, n 4
T1 construct: Charles River Study 200609.WVN
Source text: (§2) Table S2. Effects of VU6007496 on Ion Channel Current (Charles River Study 200609.WVN)
(§3) Ion Channel Conc Mean % Standard Standard n Individual Data
(§4) (μM) Inhibition Deviation Error Points (% Inhibition)

hKv1.5 = tested on: T2, hKv1.5; assay: as above; format: cell-based, human; conditions: 10 μM; n 3
T2 construct: Charles River
Source text: as §2, §3, §4

hNav1.5 (Phasic) = tested on: T3, hNav1.5 (Phasic); assay: as above; format: cell-based, human; conditions: 10 μM, n 4
T3 construct: Charles River Study 200609.WVN
Source text: as §2, §3, §4

hCav3.2 = tested on: T4, hCav3.2; assay: as above; format: cell-based, human; conditions: 10 μM; n 4
T4 construct: Charles River
Source text: as §2, §3, §4

hKvLQT1/minK = tested on: T5, hKvLQT1/minK; assay: as above; format: cell-based, human; conditions: 10 μM; n 4
T5 construct: Charles River
Source text: as §2, §3, §4

hKv1.3 = tested on: T6, hKv1.3; assay: as above; format: cell-based, human; conditions: 10 μM; n 4
T6 construct: Charles River
Source text: as §2, §3, §4

hHCN2 = tested on: T7, hHCN2; assay: as above; format: cell-based, human; conditions: 10 μM; n 3
T7 construct: Charles River
Source text: as §2, §3, §4

hCav1.2 = tested on: T8, hCav1.2; assay: as above; format: cell-based, human; conditions: 10 μM; n 4
T8 construct: Charles River
Source text: as §2, §3, §4

CYP1A2 = assay: CYP induction (mRNA) in cryopreserved human hepatocytes, CYP1A2; format: in vitro ADME; conditions: three donors
Source text: (§5) To advance 11 as a candidate and into IND-enabling studies, we next needed to better understand its CYP profile to minimize drug–drug interactions in the clinic. […] We were pleased to see the contribution of another CYP beyond 3A4 for the metabolism of 11.[21] In parallel, we investigated the ability of PAM 11 to induce the expression of CYP450s (measuring mRNA) in cryopreserved human hepatocytes from three separate donors.

CYP3A4 = assay: CYP induction (mRNA) in cryopreserved human hepatocytes, CYP3A4; format: in vitro ADME; conditions: three donors
Source text: as §5

[2] = tested on: Purinergic P2Y, Non-Selective; assay: Eurofins radioligand binding; parameters: species or system Rat; conditions: specific binding
Hepatocyte MET ID, mouse = format: in vitro ADME
Source text: We typically would not examine mouse hepatocyte MET ID, as mouse was not a safety species for the IND-enabling toxicology package, but with the unusual metabolism profile for human, and the lack of predictive cholinergic tox in the mouse phenotypic assay, we felt this was worthy of exploration. […] Clearly, based on the hepatocyte data, there is a tremendous difference in the concentration of parent 11 and metabolite composition, which sheds light on the mouse-rat disconnect for observed cholinergic toxicity in rat versus the more cholinergic sensitive mouse.

Tachykinin NK1 = assay: Eurofins radioligand binding; parameters: species or system Human; conditions: specific binding
Hepatocyte MET ID, rat = format: in vitro ADME; conditions: 4-h incubation
Source text: as §1

Histamine H3 = assay: Eurofins radioligand binding; parameters: species or system Human; conditions: specific binding
[3] = tested on: 68 GPCRs, ion channels and transporters; assay: Lead Profiling Screen, radioligand displacement (panel summary); format: binding; conditions: 10 μM; all 68 targets
Protocol: In a 4-strain Ames assay, with and without S9, both 11 and 12 were negative.
Table S1. Eurofins Lead Profiling Screen Data
This is a radioligand binding panel of 67 targets including GPCRs, ion channels, transporters and nuclear hormones. Biochemical assay results are presented as the percent inhibition of specific binding at a 10 μM concentration of VU6007496 (Compound 11).
Target/Protein Species % Inhibition at
Androgen (Testosterone) Human -24
Calcium Channel L-Type, Rat 12
Calcium Channel L-Type, Rat -8
Calcium Channel N-Type Rat 8
Epidermal Growth Factor (EGF) Human 5
GABAA, Flunitrazepam, Central Rat -3
GABAA, Muscimol, Central Rat -1
Glutamate, Kainate Rat -19
Glutamate, NMDA, Agonism Rat 0
Glutamate, NMDA, Glycine Rat 0
Glutamate, NMDA, Phencyclidine Rat 7
Imidazoline I2, Central Rat -9

Opiate δ1 (OP1, DOP) = assay: Eurofins radioligand binding; parameters: species or system Human; conditions: specific binding
[4] = tested on: GABAA, Flunitrazepam, Central; assay: Eurofins radioligand binding; parameters: species or system Rat; conditions: specific binding
[5] = tested on: Transporter, Norepinephrine (NET); assay: Eurofins radioligand binding; parameters: species or system Human; conditions: specific binding
Adrenergic α1A = assay: Eurofins radioligand binding; parameters: species or system Human; conditions: specific binding
Endothelin ETB = assay: Eurofins radioligand binding; parameters: species or system Human; conditions: specific binding
Muscarinic M2 = assay: Eurofins radioligand binding; parameters: species or system Human; conditions: specific binding
Glutamate, NMDA, Agonism = assay: Eurofins radioligand binding; parameters: species or system Rat; conditions: specific binding
Androgen (Testosterone) = assay: Eurofins radioligand binding; parameters: species or system Human; conditions: specific binding
Sigma σ1 = assay: Eurofins radioligand binding; parameters: species or system Human; conditions: specific binding
MET ID in rat liver S9 = format: in vitro ADME; conditions: based on MS peak areas
Source text: Eight oxidative metabolites were identified, with the major metabolite in both rat and human being Metabolite A (VU6036463, 24), the result of oxidative N-demethylation of the southern pyrazole (Scheme 4). The majority of other oxidative metabolism occurred on the tetrahydropyran moiety and included ring opening, but there was no amide hydrolysis observed.[21]

Cn1ccc(-c2ccc(Cc3cc(C(=O)NC4CCOCC4)nc4ccn(C)c34)cc2)n1 [compound 11]
% Inhibition at 10 µM (Bradykinin B1): 21% | % Inhibition at 10 µM (Interleukin IL-1 R1): 10% | % Inhibition at 10 µM (Adenosine A2A): -11% | % Inhibition at 10 µM (Opiate κ (OP2, KOP)): 32% | extent of metabolism, monkey hepatocytes [1]: 63.9% | extent of metabolism, human hepatocytes (Hepatocyte MET ID, human): 99.5% | Mean % Inhibition (hNav1.5 (Tonic)): 3.9% | Mean % Inhibition (hKv1.5): 8.7% | Mean % Inhibition (hNav1.5 (Phasic)): 11.4% | Mean % Inhibition (hCav3.2): 4.2% | Mean % Inhibition (hKvLQT1/minK): 13.5% | Mean % Inhibition (hKv1.3): 16.5% | Mean % Inhibition (hHCN2): 4.9% | Mean % Inhibition (hCav1.2): 12.8% | CYP1A2 induction (mRNA) (CYP1A2): ~3 fold | CYP3A4 induction (mRNA) (CYP3A4): ~21 fold | % Inhibition at 10 µM [2]: -9% | extent of metabolism, mouse hepatocytes (Hepatocyte MET ID, mouse): 95.4% | % Inhibition at 10 µM (Tachykinin NK1): 8% | extent of metabolism, rat hepatocytes (Hepatocyte MET ID, rat): 64.7% | % Inhibition at 10 µM (Histamine H3): -12% | radioligand displacement, Lead Profiling Screen [3]: < 50% | % Inhibition at 10 µM (Opiate δ1 (OP1, DOP)): 5% | % Inhibition at 10 µM [4]: -3% | % Inhibition at 10 µM [5]: 12% | % Inhibition at 10 µM (Adrenergic α1A): -1% | % Inhibition at 10 µM (Endothelin ETB): -5% | % Inhibition at 10 µM (Muscarinic M2): 0% | % Inhibition at 10 µM (Glutamate, NMDA, Agonism): 0% | % Inhibition at 10 µM (Androgen (Testosterone)): -24% | % Inhibition at 10 µM (Sigma σ1): -8% | extent of metabolism, rat liver S9 (MET ID in rat liver S9): 36.8%
